Results published in ChEMBL document CHEMBL5030545, “Discovery of clinical candidate Sivopixant (S-600918): Lead optimization of dioxotriazine derivatives as selective P2X3 receptor antagonists” (Bioorg Med Chem Lett, 2021).
Converted amounts (≈) assume the structure as drawn.

What was measured:
[1] = Plasma concentration in rat at 10 mg/kg, po measured after 3 hrs; assay type: ADME, organism-based
Rattus norvegicus [2] = assay: Analgesic activity in rat model of partial sciatic nerve ligation-induced neuropathic pain assessed as reversal of allodynia at 10 mg/kg, po measured after 3 hrs relative to control; assay type: functional
Rattus norvegicus [3] = assay: Analgesic activity in rat model of partial sciatic nerve ligation-induced neuropathic pain assessed as reversal of allodynia at 3 mg/kg, po measured after 3 hrs relative to control; assay type: functional
[4] = Plasma concentration in rat at 1 mg/kg, po measured after 3 hrs; assay type: ADME, organism-based
[5] = Half life in rat at 1 mg/kg, iv; assay type: ADME, organism-based; settings: in vivo
[6] = Plasma concentration in rat at 3 mg/kg, po measured after 3 hrs; assay type: ADME, organism-based
P2X purinoceptor 3 = molecular target: T1, P2X purinoceptor 3 (Rattus norvegicus, UniProt P49654); assay: Antagonist activity at rat P2X3 receptor
T1 sequence (P49654 whole entry): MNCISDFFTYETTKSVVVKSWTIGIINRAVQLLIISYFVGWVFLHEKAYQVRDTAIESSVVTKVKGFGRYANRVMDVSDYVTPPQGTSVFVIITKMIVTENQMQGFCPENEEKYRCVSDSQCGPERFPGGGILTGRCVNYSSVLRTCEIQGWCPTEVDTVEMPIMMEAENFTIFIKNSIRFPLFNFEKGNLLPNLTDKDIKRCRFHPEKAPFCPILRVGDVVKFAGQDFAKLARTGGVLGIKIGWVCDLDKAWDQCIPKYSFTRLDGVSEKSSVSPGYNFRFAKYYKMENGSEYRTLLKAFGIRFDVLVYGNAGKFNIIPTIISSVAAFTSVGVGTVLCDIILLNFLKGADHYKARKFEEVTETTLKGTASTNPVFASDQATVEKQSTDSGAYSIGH

[7] = Clearance in rat at 1 mg/kg, iv; assay type: ADME, organism-based; settings: in vivo
Rattus norvegicus [8] = assay: Analgesic activity in rat model of partial sciatic nerve ligation-induced neuropathic pain assessed as reversal of allodynia at 1 mg/kg, po measured after 3 hrs relative to control; assay type: functional
Cytochrome P450 2C19 = Cytochrome P450 2C19 (Homo sapiens, UniProt P33261); assay: Inhibition of CYP2C19 (unknown origin); assay type: ADME
Cytochrome P450 2C9 = Cytochrome P450 2C9 (Homo sapiens, UniProt P11712); assay: Inhibition of CYP2C9 (unknown origin); assay type: ADME
[9] = Solubility of the compound in pH 1.2 JP1 fluid; assay type: physicochemical
P2X purinoceptor 7 = molecular target: T2, P2X purinoceptor 7 (Homo sapiens, UniProt Q99572); assay: Antagonist activity at P2X7 receptor (unknown origin)
T2 sequence (Q99572 whole entry): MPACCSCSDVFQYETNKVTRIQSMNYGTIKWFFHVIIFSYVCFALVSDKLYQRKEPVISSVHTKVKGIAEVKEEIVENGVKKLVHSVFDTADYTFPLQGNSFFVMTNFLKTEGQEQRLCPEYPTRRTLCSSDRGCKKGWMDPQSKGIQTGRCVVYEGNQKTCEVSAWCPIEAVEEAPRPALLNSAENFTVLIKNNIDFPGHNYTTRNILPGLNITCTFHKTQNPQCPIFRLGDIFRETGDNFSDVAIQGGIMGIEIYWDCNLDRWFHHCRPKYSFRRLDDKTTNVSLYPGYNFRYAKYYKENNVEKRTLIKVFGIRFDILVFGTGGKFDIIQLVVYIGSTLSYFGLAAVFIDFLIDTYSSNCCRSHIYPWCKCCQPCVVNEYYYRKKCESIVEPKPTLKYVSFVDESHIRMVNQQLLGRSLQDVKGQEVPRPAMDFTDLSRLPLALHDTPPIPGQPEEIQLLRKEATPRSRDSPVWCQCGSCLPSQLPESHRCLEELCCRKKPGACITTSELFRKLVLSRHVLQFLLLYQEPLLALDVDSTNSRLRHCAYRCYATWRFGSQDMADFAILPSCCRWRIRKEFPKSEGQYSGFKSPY

[10] = Oral bioavailability in rat at 3 mg/kg; assay type: ADME, organism-based; settings: in vivo
Rattus norvegicus [11] = assay: Analgesic activity in po dosed rat model of partial sciatic nerve ligation-induced neuropathic pain; assay type: functional
[12] = Protein binding in rat plasma assessed as unbound fraction at 3 mg/kg, iv; assay type: ADME, organism-based
Cytochrome P450 2D6 = Cytochrome P450 2D6 (Homo sapiens, UniProt P10635); assay: Inhibition of CYP2D6 (unknown origin); assay type: functional
[13] = Solubility of the compound in JP2 fluid at pH 6.8; assay type: physicochemical
Cytochrome P450 1A2 = molecular target: T3, Cytochrome P450 1A2 (Homo sapiens, UniProt P05177); assay: Inhibition of CYP1A2 (unknown origin); assay type: ADME
T3 sequence (P05177 whole entry): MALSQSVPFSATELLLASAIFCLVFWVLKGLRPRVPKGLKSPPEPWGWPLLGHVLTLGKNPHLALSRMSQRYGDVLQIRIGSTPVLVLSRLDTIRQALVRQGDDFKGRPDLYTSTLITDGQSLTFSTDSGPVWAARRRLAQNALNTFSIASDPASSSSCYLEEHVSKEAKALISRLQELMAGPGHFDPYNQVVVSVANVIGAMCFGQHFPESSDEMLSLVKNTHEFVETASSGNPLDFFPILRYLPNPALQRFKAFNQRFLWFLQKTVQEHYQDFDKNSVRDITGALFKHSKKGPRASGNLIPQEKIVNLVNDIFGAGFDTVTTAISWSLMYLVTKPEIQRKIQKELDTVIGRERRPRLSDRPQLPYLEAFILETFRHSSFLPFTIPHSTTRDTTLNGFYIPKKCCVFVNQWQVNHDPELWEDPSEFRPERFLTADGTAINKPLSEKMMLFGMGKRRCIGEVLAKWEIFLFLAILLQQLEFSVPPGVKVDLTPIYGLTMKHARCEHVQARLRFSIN

[14] = Protein binding in rat plasma assessed as unbound fraction at 1 mg/kg administered as cassette dose; assay type: ADME, organism-based
Cytochrome P450 3A4 = Cytochrome P450 3A4 (Homo sapiens, UniProt P08684); assay: Inhibition of CYP3A4 (unknown origin); assay type: ADME
[15] = Cmax in rat at 3 mg/kg, po; assay type: ADME, organism-based; design: route oral, dose 3 mg/kg; settings: in vivo
P2X purinoceptor 2 = molecular target: T4, P2X purinoceptor 2 (Homo sapiens, UniProt Q9UBL9); assay: Antagonist activity at P2X2 receptor (unknown origin)
T4 sequence (Q9UBL9 whole entry): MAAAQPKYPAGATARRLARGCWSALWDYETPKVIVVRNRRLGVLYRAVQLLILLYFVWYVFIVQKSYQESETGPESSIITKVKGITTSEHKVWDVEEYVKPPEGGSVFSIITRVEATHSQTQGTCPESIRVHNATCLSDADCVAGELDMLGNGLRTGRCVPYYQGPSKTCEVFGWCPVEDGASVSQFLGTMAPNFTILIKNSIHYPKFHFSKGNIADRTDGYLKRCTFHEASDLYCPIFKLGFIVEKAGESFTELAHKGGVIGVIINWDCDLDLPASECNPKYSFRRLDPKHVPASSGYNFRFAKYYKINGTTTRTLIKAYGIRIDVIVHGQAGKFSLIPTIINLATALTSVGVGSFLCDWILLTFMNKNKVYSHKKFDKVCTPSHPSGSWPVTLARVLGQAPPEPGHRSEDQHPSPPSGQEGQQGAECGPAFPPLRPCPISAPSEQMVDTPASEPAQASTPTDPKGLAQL

[16] = Free plasma concentration in rat plasma at 1 mg/kg administered as cassette dose; assay type: ADME, organism-based; settings: in vivo
[17] = AUC in rat at 3 mg/kg, po; assay type: ADME, organism-based; design: dose 3 mg/kg; settings: in vivo
P2X purinoceptor 4 = molecular target: T5, P2X purinoceptor 4 (Homo sapiens, UniProt Q99571); assay: Antagonist activity at P2X4 receptor (unknown origin)
T5 sequence (Q99571 whole entry): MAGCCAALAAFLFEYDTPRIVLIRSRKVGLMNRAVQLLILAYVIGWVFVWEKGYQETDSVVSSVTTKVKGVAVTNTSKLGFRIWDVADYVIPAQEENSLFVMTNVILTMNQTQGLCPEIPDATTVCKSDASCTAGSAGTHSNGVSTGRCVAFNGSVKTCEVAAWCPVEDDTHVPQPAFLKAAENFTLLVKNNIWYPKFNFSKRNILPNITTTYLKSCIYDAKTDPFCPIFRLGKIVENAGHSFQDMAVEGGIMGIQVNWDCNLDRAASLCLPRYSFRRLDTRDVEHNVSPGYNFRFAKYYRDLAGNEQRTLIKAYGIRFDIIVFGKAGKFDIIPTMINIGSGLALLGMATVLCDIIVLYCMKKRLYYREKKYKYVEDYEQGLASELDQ

P2X purinoceptor 1 = molecular target: T6, P2X purinoceptor 1 (Homo sapiens, UniProt P51575); assay: Antagonist activity at P2X1 receptor (unknown origin)
T6 sequence (P51575 whole entry): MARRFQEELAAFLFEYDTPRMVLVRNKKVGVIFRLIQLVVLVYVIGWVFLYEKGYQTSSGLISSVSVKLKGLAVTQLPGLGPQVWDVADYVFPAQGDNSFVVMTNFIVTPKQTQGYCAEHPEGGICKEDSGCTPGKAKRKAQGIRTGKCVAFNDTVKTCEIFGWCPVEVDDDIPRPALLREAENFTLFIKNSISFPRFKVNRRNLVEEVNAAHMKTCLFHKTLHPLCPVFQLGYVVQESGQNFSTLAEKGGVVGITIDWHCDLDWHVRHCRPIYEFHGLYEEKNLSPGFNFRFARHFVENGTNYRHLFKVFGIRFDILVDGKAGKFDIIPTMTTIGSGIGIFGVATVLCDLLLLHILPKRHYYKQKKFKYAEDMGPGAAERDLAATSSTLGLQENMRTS

[18] = Oral bioavailability in rat at 1 mg/kg administered as cassette dose; assay type: ADME, organism-based; settings: in vivo

Sequence of Cytochrome P450 2D6 (P10635 whole entry): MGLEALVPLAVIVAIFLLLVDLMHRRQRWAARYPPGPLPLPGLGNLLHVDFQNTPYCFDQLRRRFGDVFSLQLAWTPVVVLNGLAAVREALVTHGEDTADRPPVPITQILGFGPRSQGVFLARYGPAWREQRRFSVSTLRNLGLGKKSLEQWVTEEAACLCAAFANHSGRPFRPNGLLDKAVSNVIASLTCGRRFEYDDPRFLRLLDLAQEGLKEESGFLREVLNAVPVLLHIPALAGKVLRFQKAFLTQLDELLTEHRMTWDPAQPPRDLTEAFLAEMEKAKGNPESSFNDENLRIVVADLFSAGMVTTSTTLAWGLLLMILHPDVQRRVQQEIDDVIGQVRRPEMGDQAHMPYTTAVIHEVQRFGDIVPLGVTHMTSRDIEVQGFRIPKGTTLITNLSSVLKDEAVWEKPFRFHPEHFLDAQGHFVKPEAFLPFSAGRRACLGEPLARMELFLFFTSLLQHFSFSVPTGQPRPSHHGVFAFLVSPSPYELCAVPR
Sequence of Cytochrome P450 2C9 (P11712 whole entry): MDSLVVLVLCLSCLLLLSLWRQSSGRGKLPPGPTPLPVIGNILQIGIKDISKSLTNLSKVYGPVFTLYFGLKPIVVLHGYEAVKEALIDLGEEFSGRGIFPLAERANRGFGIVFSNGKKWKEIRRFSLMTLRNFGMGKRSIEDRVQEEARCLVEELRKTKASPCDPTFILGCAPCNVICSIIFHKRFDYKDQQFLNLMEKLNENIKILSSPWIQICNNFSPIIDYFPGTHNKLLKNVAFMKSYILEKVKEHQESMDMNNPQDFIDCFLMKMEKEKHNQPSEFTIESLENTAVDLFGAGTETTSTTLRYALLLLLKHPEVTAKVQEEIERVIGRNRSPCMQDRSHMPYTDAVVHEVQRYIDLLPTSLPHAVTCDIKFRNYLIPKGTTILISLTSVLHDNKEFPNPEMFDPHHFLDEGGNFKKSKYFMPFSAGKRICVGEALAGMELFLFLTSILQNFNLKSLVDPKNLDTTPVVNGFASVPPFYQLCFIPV
Sequence of Cytochrome P450 3A4 (P08684 whole entry): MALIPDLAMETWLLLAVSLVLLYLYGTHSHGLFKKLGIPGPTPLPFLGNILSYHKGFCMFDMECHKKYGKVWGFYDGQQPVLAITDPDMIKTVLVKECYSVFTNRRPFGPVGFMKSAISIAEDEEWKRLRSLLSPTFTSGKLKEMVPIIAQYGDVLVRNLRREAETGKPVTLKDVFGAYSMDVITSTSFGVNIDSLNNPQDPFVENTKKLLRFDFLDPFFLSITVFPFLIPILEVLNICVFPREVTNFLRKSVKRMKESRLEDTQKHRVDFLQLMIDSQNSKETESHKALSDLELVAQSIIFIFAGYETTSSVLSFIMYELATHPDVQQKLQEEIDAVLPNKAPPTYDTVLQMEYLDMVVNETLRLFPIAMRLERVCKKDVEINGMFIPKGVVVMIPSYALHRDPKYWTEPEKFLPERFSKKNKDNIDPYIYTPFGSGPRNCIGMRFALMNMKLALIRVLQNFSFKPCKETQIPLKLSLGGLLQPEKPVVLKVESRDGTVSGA
Sequence of Cytochrome P450 2C19 (P33261 whole entry): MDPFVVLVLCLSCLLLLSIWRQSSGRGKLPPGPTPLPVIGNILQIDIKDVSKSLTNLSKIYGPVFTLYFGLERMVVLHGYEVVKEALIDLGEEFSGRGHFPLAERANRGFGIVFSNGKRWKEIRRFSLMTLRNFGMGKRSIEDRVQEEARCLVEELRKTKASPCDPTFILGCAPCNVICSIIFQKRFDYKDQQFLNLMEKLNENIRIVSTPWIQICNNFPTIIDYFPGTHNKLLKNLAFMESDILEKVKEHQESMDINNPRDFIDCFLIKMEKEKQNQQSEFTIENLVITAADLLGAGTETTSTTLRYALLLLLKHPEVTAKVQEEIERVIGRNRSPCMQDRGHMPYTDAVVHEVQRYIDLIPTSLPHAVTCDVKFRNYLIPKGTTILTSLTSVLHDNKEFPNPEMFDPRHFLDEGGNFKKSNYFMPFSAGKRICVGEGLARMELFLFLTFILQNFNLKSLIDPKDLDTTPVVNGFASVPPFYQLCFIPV

| SMILES | half-life [5] [h] | IC50 (P2X purinoceptor 3) [µM] | clearance [7] [L/h/kg] | IC50 (Cytochrome P450 2C19) [µM] | IC50 (Cytochrome P450 2C9) [µM] | solubility [9] [mg/mL] | IC50 (P2X purinoceptor 7) [µM] | bioavailability [10] [%] | ED50 (Rattus norvegicus [11]) [mg/kg] | fraction unbound [12] | IC50 (Cytochrome P450 2D6) [µM] | solubility [13] [mg/mL] | IC50 (Cytochrome P450 1A2) [µM] | fraction unbound [14] | IC50 (Cytochrome P450 3A4) [µM] | Cmax [15] [µg/mL] | IC50 (P2X purinoceptor 2) [µM] | Cp(f) [16] [µM] | AUC [17] [µg·h/mL] | IC50 (P2X purinoceptor 4) [µM] | further results |
| --- | --- | --- | --- | --- | --- | --- | --- | --- | --- | --- | --- | --- | --- | --- | --- | --- | --- | --- | --- | --- | --- |
| Cc1ccc(Cn2c(Nc3ccc(OC(C)C)c(Cl)c3)nc(=O)n(CCC(=O)O)c2=O)cc1 | 1.6 | 0.0061 | 0.162 |  |  |  |  |  |  |  |  |  |  |  |  |  |  |  |  |  | concentration at 3 h [1]: 7.84 µM; Activity (Rattus norvegicus [2]): 40%; Activity (Rattus norvegicus [3]): 23%; concentration at 3 h [4]: 1.32 µM; concentration at 3 h [6]: 2.65 µM; Activity (Rattus norvegicus [8]): 11% |
| C[C@@H](Cn1c(=O)[nH]/c(=N\c2ccc(Oc3ccsn3)cc2)n(Cc2ccc(Cl)cc2)c1=O)C(=O)O | 4.4 | 0.0077 | 0.132 | > 20 | > 20 | 0.0008 (≈ 1.56 µM) | > 30 | 60 | 0.4 | 0.012 | > 20 | 0.65 (≈ 1260 µM) | > 20 | 0.012 | > 20 | 1.61 | > 30 | 0.671 | 13.7 | > 30 | IC50 (P2X purinoceptor 1): > 30 µM; bioavailability [18]: 87.6% |
| C[C@@H](Cn1c(=O)[nH]/c(=N\c2ccc(Oc3ccnc(F)c3)cc2)n(Cc2ccc(Cl)cc2)c1=O)C(=O)O | 4.3 | 0.0038 | 0.354 | > 20 | > 20 | 0.0022 (≈ 4.18 µM) | > 30 | 46.9 | 0.3 | 0.013 | > 20 | 0.212 (≈ 403 µM) | > 20 | 0.013 | > 20 | 0.597 | > 30 | 0.738 | 4.02 | > 30 | IC50 (P2X purinoceptor 1): > 30 µM; bioavailability [18]: 43.2% |
